Laboratory results reported in article PMC9002265, “A New Series of Strigolactone Analogs Derived From Cinnamic Acids as Germination Inducers for Root Parasitic Plants” (Frontiers in Plant Science, 2022).

Experiments:
[1] = target: T1, ShHTL7 (Striga hermonthica, UniProt A0A0M3PNA2); assay: Hydrolysis assay with recombinant ShHTL7; format: biochemical; conditions: 10 μM substrate, 30°C, 60 min
T1 sequence (A0A0M3PNA2 1-271): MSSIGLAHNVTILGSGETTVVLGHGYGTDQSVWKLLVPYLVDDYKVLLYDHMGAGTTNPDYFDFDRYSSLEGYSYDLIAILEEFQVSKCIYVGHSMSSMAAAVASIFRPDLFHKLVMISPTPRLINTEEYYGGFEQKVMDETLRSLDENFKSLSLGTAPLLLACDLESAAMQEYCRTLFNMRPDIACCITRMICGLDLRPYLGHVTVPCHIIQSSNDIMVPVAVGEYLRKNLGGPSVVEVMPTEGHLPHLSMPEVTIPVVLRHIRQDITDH
Procedure: The ORF fragment of ShHTL6 and ShHTL7 was synthesized using IDT gBlock service. The PCR amplified ShHTL6 and ShHTL7 fragment was digested with Nco I and EcoR I, and the digested product was introduced into a modified pET28 vector with an N-terminal His8 tag. Escherichia coli BL21(DE3) was used for protein expression. The overnight culture (12 ml) was added to a fresh LB medium (1.2 L) containing kanamycin (50 mg/L) at 37°C. After OD600 reached 0.8, 0.1 mM IPTG was added and the cell was further incubated at 16°C for 21 h. The culture medium was centrifuged at 3700 g and the pellet was stored at −20°C until use. The pellet was resuspended and sonicated in a lysis buffer (50 mM Tris buffer (pH 8.0) containing 500 mM NaCl, 10 mM 2-mercaptoethanol, and 10% glycerol). The supernatant was purified by Ni Sepharose TM 6 Fast Flow (500 μl, Cytiva). After washing with the washing buffer (50 mM Tris buffer (pH 8.0) containing 500 mM NaCl and 20 mM imidazole), The bound protein was eluted with elution buffer (50 mM Tris buffer (pH 8.0) containing 500 mM NaCl and 200 mM imidazole). The eluate was concentrated using VIVASPIN Turbo 15 (Sartorius), and the concentration was adjusted to 5 mg/ml. The purified protein was aliquoted to the appropriate volume, immediately frozen in liquid nitrogen, and stored at −80°C until use.
Hydrolysis assays were carried out at 30°C for 60 min in 100 μl of a reaction buffer containing 0.13 pmol recombinant ShHTL7 or AtD14, 10 μM of substrate in 50 mM Phosphate-Na buffer (pH 7.0) containing 2% acetone. The enzyme reaction was stopped by addition of 100 μl of acetonitrile containing 1-naphtaleneacetic acid (NAA; 0.5 ng/μl) as an internal standard. After centrifuged at 13,000 rpm for 5 min, each sample was subjected to LC–MS/MS analysis equipped with reverse-phase column (CORTECS UPLC Phenyl 1.6 μm, ϕ2.1 × 75 mm; Waters). The concentration of remaining substrate and reaction product was calculated by using NAA as an internal standard. Detailed information about the analytical condition is described in Supplementary Table 1.

[2] = system: Arabidopsis wild type Col-0; assay: Growth promoting assay and root phenotypic analysis; format: in vivo; conditions: 1 μM on agar plate
Procedure: Sterilized seeds of the Arabidopsis wild type Col-0 were put on the plate containing 1% (w/v) agar-solidified 0.5× Murashige and Skoog (MS) medium, 1% sucrose. Test compounds were dissolved in the medium at 1 μM by 10,000 times dilution from each acetone stock (final concentration of acetone was 0.01% (v/v)). To evaluate the growth promoting effect, these seedlings were cultured horizontally at 22°C for 20 days under LED light (105 μmol/m^2/s) with a 16 h light/8 h dark photoperiod. After the cultivation, flesh weight of shoot was measured. For root phenotypic analysis, these seedlings were cultured verticaly at 22°C for 11 days under LED light (105 μmol/m^2/s) with a 16 h light/8 h dark photoperiod. After the cultivation, root length was measured by using ImageJ software and number of lateral roots was counted by using a microscope.

[3] = Time course monitoring of degradation in hydroponic culture; format: physicochemical; conditions: 1 μM, within 1 week, pH 5.7, LC-MS/MS
Procedure: t-CASL1, c-CASL1, PPASL, and GR5 were separately added to 15 ml tubes containing hydroponic culture. The final concentration of the test compounds is 1 μM and acetone was adjusted to 0.01% (v/v). These solutions were incubated under the same conditions as branching assay. After incubation for 0, 5, 24 72, or 168 h, 495 μl of hydroponic culture containing test compounds was collected and 5 μl of NAA solution (10 μM) was added as an internal standard. The solution was extracted with ethyl acetate. The ethyl acetate phase was dried up under the nitrogen gas and dissolved in acetonitrile. These samples were subjected to LC–MS/MS analysis equipped with reverse-phase column (CORTECS UPLC Phenyl 1.6 μm, ϕ2.1 × 75 mm; Waters). Each peak area of test chemicals and internal standard was calculated, and the remaining percentage of teste chemicals was calculated. At the same time, the degradation products of test compounds (CA or PPA) were also analyzed. Detailed information about the analytical condition was described in Supplementary Table 1.

CC1=CC(OC(=O)/C=C\c2ccccc2)OC1=O (centres unmarked) [c-CASL1]
hydrolysis by HTL7 [1]: can hydrolyze
lateral root density ([2]; 11 days): increased
primary root length ([2]; 11 days): inhibited
shoot fresh weight ([2]; 20 days): increase
loss (non-enzymatic degradation) in hydroponic culture medium [3]: ~40%
